What was measured:
Assay type in all cases: functional
[1] = molecular target: T1, G-protein coupled receptor 6 (Homo sapiens, UniProt P46095); assay: Inverse agonist activity at rat G-protein GSalpha fused GPR6 (unknown origin) expressed in HEK293 cell membranes assessed as effect on [35S]GTPgammaS binding pre-incubated for 5 to 10 mins followed by 60 mins incubation in presence of [35S]GTPgammaS by scintillation proximity assay
[2] = molecular target: T1, G-protein coupled receptor 6; assay: Inverse agonist activity at rat G-protein GSalpha fused GPR6 (unknown origin) expressed in HEK293 cell membranes assessed as cAMP accumulation pre-incubated for 30 mins by microbeta plate reader based assay
Rattus norvegicus [3] = assay: Reduction in food intake in 24 hrs food-deprived Sprague-Dawley rat assessed as food intake level at 100 umol/kg, po followed by standard chow pellets feeding and measured 8 hrs post dose (reference value: 14 to 14.5g)
Rattus norvegicus [4] = assay: Reduction in water intake in 24 hrs food-deprived Sprague-Dawley rat assessed as water intake level at 100 umol/kg, po followed by standard chow pellets feeding and measured 6 hrs post dose (reference value: 19.25 to 22.9g)
Rattus norvegicus [5] = assay: Reduction in food intake in 24 hrs food-deprived Sprague-Dawley rat assessed as food intake level per 2 hrs at 100 umol/kg, po followed by standard chow pellets feeding and measured 8 hrs post dose (reference value: 2 to 2.5g/2 hrs)
Rattus norvegicus [6] = assay: Reduction in body weight gain in 24 hrs food-deprived Sprague-Dawley rat assessed as body weight at 100 umol/kg, po followed by standard chow pellets feeding and measured 8 hrs post dose (reference value: 19.5g)
Rattus norvegicus [7] = assay: Reduction in water intake in 24 hrs food-deprived Sprague-Dawley rat assessed as water intake level at 100 umol/kg, po followed by standard chow pellets feeding and measured 8 hrs post dose (reference value: 19g)
Rattus norvegicus [8] = assay: Reduction in body weight gain in 24 hrs food-deprived Sprague-Dawley rat assessed as body weight gain level at 100 umol/kg, po followed by standard chow pellets feeding and measured 6 hrs post dose (reference value: 19.25 to 20.3g)

T1 sequence (P46095 whole entry, the tested form may be a part): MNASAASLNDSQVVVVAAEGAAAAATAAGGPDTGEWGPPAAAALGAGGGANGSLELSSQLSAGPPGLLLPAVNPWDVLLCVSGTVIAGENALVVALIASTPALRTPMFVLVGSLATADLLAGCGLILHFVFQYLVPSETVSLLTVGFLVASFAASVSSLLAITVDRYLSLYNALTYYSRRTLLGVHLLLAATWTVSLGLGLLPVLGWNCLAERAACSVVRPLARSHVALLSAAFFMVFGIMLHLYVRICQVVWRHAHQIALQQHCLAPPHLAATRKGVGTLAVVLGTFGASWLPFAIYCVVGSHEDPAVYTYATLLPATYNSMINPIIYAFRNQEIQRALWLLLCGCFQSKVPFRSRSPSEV

| IC50 [1] [nM] | IC50 [2] [nM] | Structure (SMILES) | further results |
| --- | --- | --- | --- |
| 2430 | 5830 | O=C(NC(=S)N1CCNC1=S)c1ccno1 |  |
| 790 | 140 | Cc1cccc(C(=O)/N=C2\SSC3=NCCN32)c1 |  |
| 200000 |  | CSc1ncccc1C(=O)NC(=S)N1CCNC1=S |  |
| 310 | 400 | COc1cccc(C(=O)/N=C2\SSC3=NCCN32)c1 |  |
| 670 | 133 | O=C(/N=C1\SSC2=NCCN21)c1cccnc1 |  |
| 410 | 190 | O=C(/N=C1\SSC2=NCCN21)c1ccc(F)cc1F |  |
| 460 | 350 | Cc1noc(C)c1C(=O)/N=C1\SSC2=NCCN21 |  |
| 130 | 190 | O=C(/N=C1\SSC2=NCCN21)c1cc2ccccc2s1 | Activity (Rattus norvegicus [3]): 9.6 g; Activity (Rattus norvegicus [4]): 20 g; Activity (Rattus norvegicus [5]): 1 g; Activity (Rattus norvegicus [6]): 14 g; Activity (Rattus norvegicus [7]): 19 g |
| 650 | 370 | CC(C)(C)c1ccc(C(=O)/N=C2\SSC3=NCCN32)cc1 |  |
| 350 | 100 | O=C(/N=C1\SSC2=NCCN21)c1ccccc1F |  |
| 190 |  | O=C(/N=C1\SSC2=NCCN21)c1cnn(-c2ccc(Cl)cc2)c1C(F)(F)F |  |
| 570 | 170 | O=C(/N=C1\SSC2=NCCN21)c1ccc(C(F)(F)F)cc1 |  |
| 220 | 240 | O=C(/N=C1\SSC2=NCCN21)c1cccc(F)c1 | Activity (Rattus norvegicus [3]): 9.1 g; Activity (Rattus norvegicus [4]): 9.5 g; Activity (Rattus norvegicus [8]): 9.5 g; Activity (Rattus norvegicus [5]): 1 g; Activity (Rattus norvegicus [6]): 9 g; Activity (Rattus norvegicus [7]): 10 g |
